# Test results reported in PMC2856764 (Human immunology, 2010).
# Ends that are not written are not given here. Peptide text beside a SMILES is read from it.
# Assays:
# [1] = target: HLA-A*0301 (Homo sapiens, UniProt P04439); assay: biochemical; format: binding
# [2] = target: HLA-A*1101 (Homo sapiens, UniProt P04439, A114D/D185E/E176A/F33Y/L180Q/S129P/T187R); assay: biochemical; format: binding
# [3] = target: HLA-A*3101 (Homo sapiens, UniProt P04439, A270S/D185E/E176V/E277Q/F33T/G231S/G80R/H175R/I121M/I218V/I322F/K168Q/L300P/L318F/M331R/P217A/Q94H/R138Q/T323A/T345S/T97I/V358M); assay: biochemical; format: binding
# [4] = target: HLA-A*3301 (Homo sapiens, UniProt P04439, A270S/D185E/E176V/E277Q/E87N/F33T/G231S/H175R/I121M/I218V/I322F/K168Q/K210R/L300P/L318F/M331R/P217A/Q86R/Q94H/R138Q/T323A/T345S/T97I/V358M/Y195H); assay: biochemical; format: binding
# [5] = target: HLA-A*6801 (Homo sapiens, UniProt P04439, A269V/D185E/E176V/E277Q/E87N/F33Y/G231S/I121M/I166T/I218V/L180W/L300P/L318F/N151K/P208A/P217A/Q86R/R169H/T345S); assay: biochemical; format: binding
# [6] = target: HLA-B*1801 (Homo sapiens, UniProt P01889, A329T/A93T/A95T/C349S/D201E/D54G/D98Y/E176V/E187T/E204Q/E69T/K202T/Q94N/R155S/R180L/S121R/V306I/Y140S/Y195H/Y33H/Y91S); assay: biochemical; format: binding
# [7] = target: HLA-B*4001 (Homo sapiens, UniProt P01889, A65T/A93T/A95T/D138N/D98Y/E176V/E69K/N87E/Q56L/Q94N/R180L/S121R/S35A/S48T/T167S/V36M/W171L/Y33H/Y91S); assay: biochemical; format: binding
# [8] = target: HLA-B*4002 (Homo sapiens, UniProt P01889, A65T/A93T/A95T/D138N/D201E/D98Y/E176V/E204Q/E69K/K202T/N87E/Q56L/Q94N/R180L/S48T/Y33H/Y91S); assay: biochemical; format: binding
# [9] = target: HLA-B*4402 (Homo sapiens, UniProt P01889, A223V/A65T/A93T/A95T/D201E/D98Y/E176V/E187L/E204Q/E69K/G107R/H137Y/K202T/L105A/L119I/N104T/N87E/Q56L/Q94N/R106L/R155S/R180D/S101N/S121R/S35A/S48T/T118I/V36M/W191S/Y140D/Y91S); assay: biochemical; format: binding
# [10] = target: HLA-B*4403 (Homo sapiens, UniProt P01889, A223V/A65T/A93T/A95T/D201E/D98Y/E176V/E187L/E204Q/E69K/G107R/H137Y/K202T/L105A/L119I/N104T/N87E/Q56L/Q94N/R106L/R155S/R180L/S101N/S121R/S35A/S48T/T118I/V36M/W191S/Y140D/Y91S); assay: biochemical; format: binding
# [11] = target: HLA-B*4501 (Homo sapiens, UniProt P01889, A329T/A65T/A93T/A95T/C349S/D138N/D201E/D98Y/E176V/E187L/E204Q/E69K/H137Y/K202T/L119W/N87E/Q56L/Q94N/R155S/R180D/S121R/S35A/S48T/V127L/V306I/V36M/W191S/Y140L/Y33H/Y91S); assay: biochemical; format: binding
# [12] = target: HLA-A*0201 (Homo sapiens, UniProt P04439, D140Y/D185E/D98H/E176V/E277Q/G131W/G231S/I119V/I121R/I166T/I218V/L300P/L318F/N151K/N90K/P208A/P217A/Q86G/Q94H/R138H/R169H/T345S); assay: biochemical; format: binding
# [13] = target: HLA-A*0202 (Homo sapiens, UniProt P04439, D140Y/D185E/D98H/E176V/E277Q/G131W/G231S/I119L/I121R/I166T/I218V/L180W/L300P/L318F/N151K/N90K/P208A/P217A/Q67R/Q86G/Q94H/R138H/R169H/T345S); assay: biochemical; format: binding
# [14] = target: HLA-A*0203 (Homo sapiens, UniProt P04439, A173T/D140Y/D185E/D98H/E277Q/G131W/G231S/I119V/I121R/I166T/I218V/L180W/L300P/L318F/N151K/N90K/P208A/P217A/Q86G/Q94H/R138H/R169H/T345S); assay: biochemical; format: binding
# [15] = target: HLA-A*0206 (Homo sapiens, UniProt P04439, D140Y/D185E/D98H/E176V/E277Q/F33Y/G131W/G231S/I119V/I121R/I166T/I218V/L300P/L318F/N151K/N90K/P208A/P217A/Q86G/Q94H/R138H/R169H/T345S); assay: biochemical; format: binding
# [16] = target: HLA-A*6802 (Homo sapiens, UniProt P04439, A269V/D140Y/D185E/E176V/E277Q/E87N/F33Y/G231S/I121R/I166T/I218V/L180W/L300P/L318F/N151K/P208A/P217A/Q86R/R138H/R169H/S129P/T345S/V36M); assay: biochemical; format: binding
# [17] = target: HLA-A*0101 (Homo sapiens, UniProt P04439, A114D/A174V/A182V/D101N/D185E/E176A/E190D/L180R/Q94H/R68K/S129P/T187R/V100A/V91M/W191G); assay: biochemical; format: binding
# [18] = target: HLA-A*2601 (Homo sapiens, UniProt P04439, A114D/A173T/A270S/D101N/D185E/E277Q/E87N/F33Y/G231S/I121R/I218V/K168Q/L180W/L300P/L318F/P208A/P217A/Q86R/Q94H/R138Q/S129P/T187R/T323A/T345S/V100A/V358M); assay: biochemical; format: binding
# [19] = target: HLA-A*2902 (Homo sapiens, UniProt P04439, A270S/D101N/D185E/E176V/E277Q/E87Q/F33T/G231S/H175R/I121M/I218V/I322F/K168Q/L300P/L318F/M331R/P208A/P217A/Q86L/T323A/T345S/V100A/V358M); assay: biochemical; format: binding
# [20] = target: HLA-A*3002 (Homo sapiens, UniProt P04439, D101N/D140H/D185E/E176R/F33S/G80R/H175R/K168Q/Q94H/R138E/R41S/V100E); assay: biochemical; format: binding
# [21] = tested on: CD8+ enriched human donor PBMC; format: cell-based
# [22] = target: HLA-A*2301 (Homo sapiens, UniProt P04439, D101N/D140Y/D185E/E176V/E190D/F33S/G103R/G107R/H175R/I119L/I121M/I306V/K168Q/K335N/L105A/L300P/N151K/N90K/P307H/Q86E/Q94H/R106L/R138H/R89G/T104I/T345S/V100E/W191G/Y123F); assay: biochemical; format: binding
# [23] = target: HLA-A*2402 (Homo sapiens, UniProt P04439, D101N/D140Y/D185E/E176V/E190D/F33S/G103R/G107R/I119L/I121M/I306V/K335N/L105A/L180Q/L300P/N151K/N90K/Q86E/Q94H/R106L/R138H/R89G/T104I/T345S/V100E/W191G/Y123F); assay: biochemical; format: binding
molecule,measurement,setting,value
SVQPTFSVQR [NP.407],IC50,[1],> 10 µM
same,IC50,[2],0.037 µM
same,IC50,[3],0.021 µM
same,IC50,[4],0.181 µM
same,IC50,[5],0.084 µM
TEVETYVLSI [M1.5],IC50,[6],0.136 µM
same,IC50,[7],0.133 µM
same,IC50,[8],0.195 µM
same,IC50,[9],6.88 µM
same,IC50,[10],0.247 µM
same,IC50,[11],0.504 µM
RLFFKCIYRR [M2.45],IC50,[1],0.135 µM
same,IC50,[2],0.294 µM
same,IC50,[3],0.005 µM
same,IC50,[4],0.238 µM
same,IC50,[5],0.088 µM
GERQNATEI [NP.17],IC50,[6],> 10 µM
same,IC50,[7],0.199 µM
same,IC50,[8],0.053 µM
same,IC50,[9],> 10 µM
same,IC50,[10],> 10 µM
same,IC50,[11],0.304 µM
ASCMGLIYNR [M1.125],IC50,[1],0.816 µM
same,IC50,[2],0.032 µM
same,IC50,[3],0.007 µM
same,IC50,[4],0.445 µM
same,IC50,[5],0.391 µM
SVQRNLPFER [NP.413],IC50,[1],> 10 µM
same,IC50,[2],0.411 µM
same,IC50,[3],0.104 µM
same,IC50,[4],0.321 µM
same,IC50,[5],0.019 µM
NMLSTVLGV [PB1.413],IC50,[12],0.004 µM
same,IC50,[13],0.005 µM
same,IC50,[14],0.011 µM
same,IC50,[15],0.003 µM
same,IC50,[16],1.06 µM
YSHGTGTGY [PB1.30],IC50,[17],0.199 µM
same,IC50,[18],0.005 µM
same,IC50,[19],0.486 µM
same,IC50,[20],0.131 µM
SFSFGGFTFK [PB2.322],IC50,[1],0.074 µM
same,IC50,[2],0.007 µM
same,IC50,[3],0.019 µM
same,IC50,[4],0.085 µM
same,IC50,[5],0.06 µM
QEIRTFSFQL [NS2.184],IC50,[6],0.515 µM
same,IC50,[7],0.135 µM
same,IC50,[8],0.068 µM
same,IC50,[9],0.102 µM
same,IC50,[10],0.431 µM
same,IC50,[11],0.38 µM
CC(C)C[C@H](NC(=O)[C@H](CS)NC(=O)[C@H](CO)NC(=O)[C@@H](N)CCCCN)C(=O)N1CCC[C@H]1C(=O)N[C@@H](C)C(=O)N[C@@H](CS)C(=O)N[C@H](C(=O)N[C@@H](Cc1ccc(O)cc1)C(=O)O)C(C)C [NP.273] (H-KSCLPACVY-OH; N-terminus and C-terminus assumed),IFN-γ responses,[21],590; 1200; 300 SFC/10^6 CD8^+ cells
same,peptide-specific recall response,[21],Significant
FYRYGFVANF [PB1.496],IC50,[19],0.812 µM
same,IC50,[20],> 10 µM
same,IC50,[22],0.013 µM
same,IC50,[23],0.017 µM
FQGRGVFEL [NP.458],IC50,[12],0.143 µM
same,IC50,[13],0.007 µM
same,IC50,[14],0.307 µM
same,IC50,[15],0.007 µM
same,IC50,[16],> 10 µM
LVSDGGPNLY [PB1.590],IC50,[17],0.399 µM
same,IC50,[18],0.156 µM
same,IC50,[19],0.479 µM
same,IC50,[20],0.057 µM
FQVDCFLWHV [NS1.9],IC50,[12],0.004 µM
same,IC50,[13],0.004 µM
same,IC50,[14],0.003 µM
same,IC50,[15],0.001 µM
same,IC50,[16],0.219 µM
GLFGAIAGFI [HA.345],IC50,[12],0.041 µM
same,IC50,[13],0.0004 µM
same,IC50,[14],0.001 µM
same,IC50,[15],2.54 µM
same,IC50,[16],1.53 µM
FYIQMCTEL [NP.39],IC50,[19],1.56 µM
same,IC50,[20],> 10 µM
same,IC50,[22],0.008 µM
same,IC50,[23],0.024 µM
GTFEFTSFFY [PB1.488],IC50,[1],0.016 µM
same,IC50,[2],0.001 µM
same,IC50,[3],0.242 µM
same,IC50,[4],5.41 µM
same,IC50,[5],0.1 µM
SEQAAEAMEV [M1.196],IC50,[6],1.9 µM
same,IC50,[7],2.67 µM
same,IC50,[8],0.085 µM
same,IC50,[9],2.64 µM
same,IC50,[10],7.67 µM
same,IC50,[11],0.035 µM
KFLPDLYDYK [PA.104],IC50,[1],0.255 µM
same,IC50,[2],0.022 µM
same,IC50,[3],2.41 µM
same,IC50,[4],> 10 µM
same,IC50,[5],0.507 µM
KLVGINMSKK [PB1.471],IC50,[1],0.014 µM
same,IC50,[2],0.315 µM
same,IC50,[3],0.518 µM
same,IC50,[4],> 10 µM
same,IC50,[5],1.61 µM
CC(C)C[C@H](NC(=O)CNC(=O)[C@H](Cc1ccc(O)cc1)NC(=O)[C@@H](NC(=O)[C@H](CS)NC(=O)[C@H](C)NC(=O)[C@@H]1CCCN1C(=O)[C@H](CC(C)C)NC(=O)[C@@H](N)CS)C(C)C)C(=O)O [NP.275] (H-CLPACVYGL-OH; N-terminus and C-terminus assumed),IFN-γ responses,[21],350; 986; 2200 SFC/10^6 CD8^+ cells
same,peptide-specific recall response,[21],responses induced
VLRGFLILGK [PB2.690],IC50,[1],0.01 µM
same,IC50,[2],0.46 µM
same,IC50,[3],0.085 µM
same,IC50,[4],> 10 µM
same,IC50,[5],1.16 µM
